According to doi:10.64898/2025.12.10.692519v1 (biorxiv, 2025):

How the values were obtained:
ALDH1A1 = ALDH1A1 (Homo sapiens, UniProt P00352); experiment: NADH fluorescence dehydrogenase assay; assay type: biochemical
ALDH2 = ALDH2 (Homo sapiens, UniProt P05091); experiment: NADH fluorescence dehydrogenase assay; assay type: biochemical
TG-LAM-134-P0 = experiment: cells; parameters: species or system primary AML patient blasts; settings: 48 h, read-out: IC50 (µM) / AB8939
TG-LAM-135-P0 = experiment: cells; parameters: species or system primary AML patient blasts; settings: 48 h, read-out: IC50 (µM) / AB8939
TG-LAM-136-P0 = experiment: cells; parameters: species or system primary AML patient blasts; settings: 48 h, read-out: IC50 (µM) / AB8939
TG-LAM-138-P0 = experiment: cells; parameters: species or system primary AML patient blasts; settings: 48 h, read-out: IC50 (µM) / AB8939
TG-LAM-139-P0 = experiment: cells; parameters: species or system primary AML patient blasts; settings: 48 h, read-out: IC50 (µM) / AB8939
TG-LAM-140-P0 = experiment: cells; parameters: species or system primary AML patient blasts; settings: 48 h, read-out: IC50 (µM) / AB8939
TG-LAM-141-P0 = experiment: cells; parameters: species or system primary AML patient blasts; settings: 48 h, read-out: IC50 (µM) / AB8939
TG-LAM-142-P0 = experiment: cells; parameters: species or system primary AML patient blasts; settings: 48 h, read-out: IC50 (µM) / AB8939
TG-LAM-143-P0 = experiment: cells; parameters: species or system primary AML patient blasts; settings: 48 h, read-out: IC50 (µM) / AB8939
TG-LAM-144-P0 = experiment: cells; parameters: species or system primary AML patient blasts; settings: 48 h, read-out: IC50 (µM) / AB8939
TG-LAM-145-P0 = experiment: cells; parameters: species or system primary AML patient blasts; settings: 48 h, read-out: IC50 (µM) / AB8939
TG-LAM-75-P3 = experiment: cells; parameters: species or system primary AML patient blasts; settings: 48 h, read-out: IC50 (µM) / AB8939
TG-LAM-76-P3 = experiment: cells; parameters: species or system primary AML patient blasts; settings: 48 h, read-out: IC50 (µM) / AB8939
TG-LAM-77-P0 = experiment: cells; parameters: species or system primary AML patient blasts; settings: 48 h, read-out: IC50 (µM) / AB8939
786-O = experiment: cells; settings: Homo sapiens, 786-0, 144 h, read-out: AB8939
ACHN = experiment: cells; settings: Homo sapiens, ACHN, 144 h, read-out: AB8939
HL-60 = experiment: cells; settings: Homo sapiens, HL-60, 144 h, read-out: AB8939
LnCaP = experiment: cells; settings: Homo sapiens, LNCaP, 144 h, read-out: AB8939
MCF-7 = experiment: cells; settings: Homo sapiens, MCF7, 144 h, read-out: AB8939
NOMO-1 = experiment: cells; settings: Homo sapiens, NOMO-1, 144 h, read-out: AB8939
PLC-PRF5 = experiment: cells; settings: Homo sapiens, PLC-PRF-5, 144 h, read-out: AB8939
SK-N-MC = experiment: cells; settings: Homo sapiens, SK-N-MC, 144 h, read-out: AB8939
SW-872 = experiment: cells; settings: Homo sapiens, SW872, 144 h, read-out: AB8939
THP-1 = experiment: cells; settings: Homo sapiens, THP-1, 144 h, read-out: AB8939
U-118 = experiment: cells; settings: 144 h, read-out: AB8939
MESSA = experiment: cells; parameters: species or system MES-SA/Mx2; settings: Homo sapiens, MES-SA, read-out: MES-SA
CMK = experiment: cells; parameters: species or system CHRF; settings: Homo sapiens, 72 h, read-out: AB8939 (IC50 nM)

Sequence of ALDH1A1 (P00352 2-501): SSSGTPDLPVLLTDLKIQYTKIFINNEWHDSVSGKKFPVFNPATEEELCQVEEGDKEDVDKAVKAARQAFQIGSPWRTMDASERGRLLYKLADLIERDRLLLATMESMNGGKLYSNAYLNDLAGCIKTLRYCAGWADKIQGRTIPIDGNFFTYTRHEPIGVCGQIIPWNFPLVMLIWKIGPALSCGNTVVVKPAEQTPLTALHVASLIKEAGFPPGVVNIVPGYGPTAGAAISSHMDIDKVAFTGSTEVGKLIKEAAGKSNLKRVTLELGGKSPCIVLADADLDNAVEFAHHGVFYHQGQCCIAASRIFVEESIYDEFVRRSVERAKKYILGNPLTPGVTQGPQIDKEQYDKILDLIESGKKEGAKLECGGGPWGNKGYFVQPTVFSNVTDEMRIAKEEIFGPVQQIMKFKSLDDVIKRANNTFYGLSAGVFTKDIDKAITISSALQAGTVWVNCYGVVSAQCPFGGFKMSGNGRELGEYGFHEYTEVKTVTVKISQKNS
Sequence of ALDH2 (P05091 17-517): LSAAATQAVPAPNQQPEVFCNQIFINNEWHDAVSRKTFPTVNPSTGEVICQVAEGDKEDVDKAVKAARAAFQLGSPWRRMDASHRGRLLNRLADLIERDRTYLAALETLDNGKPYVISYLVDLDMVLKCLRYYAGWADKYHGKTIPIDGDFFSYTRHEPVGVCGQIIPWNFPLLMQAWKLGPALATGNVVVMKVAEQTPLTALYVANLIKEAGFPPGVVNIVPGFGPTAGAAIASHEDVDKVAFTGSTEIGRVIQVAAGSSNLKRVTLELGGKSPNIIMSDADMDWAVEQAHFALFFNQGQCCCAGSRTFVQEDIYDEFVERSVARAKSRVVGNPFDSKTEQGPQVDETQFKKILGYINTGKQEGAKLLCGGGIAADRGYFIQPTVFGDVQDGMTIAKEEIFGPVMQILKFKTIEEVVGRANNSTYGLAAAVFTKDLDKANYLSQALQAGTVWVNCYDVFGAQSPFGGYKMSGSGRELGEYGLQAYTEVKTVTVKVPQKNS

SMILES: CCOCc1ccc(C)c(Nc2ncc(-c3ccc(N4CCNC4=O)cc3)o2)c1 [AB8939]
- IC50 (ALDH1A1): 610 nM
- IC50 (ALDH2): 340 nM
- IC50 (TG-LAM-134-P0): 0.08 µM
- IC50 (TG-LAM-135-P0): > 5 µM
- IC50 (TG-LAM-136-P0): 0.04 µM
- IC50 (TG-LAM-138-P0): > 5 µM
- IC50 (TG-LAM-139-P0): 0.94 µM
- IC50 (TG-LAM-140-P0): 0.06 µM
- IC50 (TG-LAM-141-P0): 0.12 µM
- IC50 (TG-LAM-142-P0): > 5 µM
- IC50 (TG-LAM-143-P0): 0.36 µM
- IC50 (TG-LAM-144-P0): 0.38 µM
- IC50 (TG-LAM-145-P0): 1.8 µM
- IC50 (TG-LAM-75-P3): 0.05 µM
- IC50 (TG-LAM-76-P3): 0.013 µM
- IC50 (TG-LAM-77-P0): > 5 µM
- IC50 (786-O): 87 nM
- IC50 (ACHN): 4 nM
- IC50 (HL-60): 14 nM
- IC50 (LnCaP): 5 nM
- IC50 (MCF-7): 122 nM
- IC50 (NOMO-1): 46 nM
- IC50 (PLC-PRF5): 2 nM
- IC50 (SK-N-MC): 1 nM
- IC50 (SW-872): 1 nM
- IC50 (THP-1): 49 nM
- IC50 (U-118): 1 nM
- IC50 (MESSA): 5.7 ± 5 nM
- IC50 (CMK): 5.68 nM
